Experimental data: patent US11208446B2, “Agents and methods for treating CBP-dependent cancers” (priority 2016, dated 2021)

Assays:
[1] = tested on: primary MLL-rearranged AML; assay: Primary patient derived xenograft, hCD45 staining of bone marrow; type: in vivo, NSG mice; conditions: 25 mg/kg daily intraperitoneal, 21 days
Method: Mouse studies. All mouse experiments were carried out in accordance with institutional animal protocols. Two hundred thousand primary AML MLL-rearranged leukemia cells were suspended in […] of PBS and transplanted via tail vein injection into 8-week-old sublethally irradiation (200 rad) female NOD.Cg-Prkdc(scid)Il2rg(tm1Wjl)/SzJ mice (The Jackson Laboratory, Bar Harbor, Me., USA). Recipient mice were maintained on antibiotic supplementation in chow (0.025% trimethoprim, 0.124% sulfamethoxazole, Sulfatrim). Three days after transplant, mice were randomly assigned to experimental treatment groups. […]

[2] = tested on: MOLM13, MV411, ML2, and HL60 cell lines; assay: Cell viability, live cell count by Trypan blue exclusion; type: cell-based, human; conditions: 10 μM and 20 μM every 48 hours for 6 days
Method: Cell culture. The human AML lines MV411, MOLM13, ML2, and HL60 were obtained from the American Type Culture Collection (ATCC, Manassas, Va., USA). Umbilical cord blood was obtained from the New York Blood Center. The identity of all cell lines was verified by STR analysis (Genetica DNA Laboratories, Burlington, N.C., USA) and absence of Mycoplasma sp. contamination was determined using Lonza MycoAlert (Lonza Walkersville, Inc., Walkersville, Md., USA). Cell lines were cultured in 5% CO2 in a humidified atmosphere at 37° C. in RPMI medium supplemented with 10% fetal bovine serum (FBS) and antibiotics (100 U/ml penicillin and 100 μg/ml streptomycin). Cell viability analysis. Cells were resuspended and plated at a concentration of 2×10^5 cells in 200 μL in 96-well tissue culture plates. Media with peptides was replaced every 48 hours. To assess the number of viable cells, cells were resuspended in PBS and 10 μL mixed in a 1:1 ratio with 0.4% Trypan Blue (Thermo Fisher) and counted using a hematocytometer (Hausser Scientific, Horsham, Pa., USA). To assess viability using an ATP-based assay, cell viability was assessed using the CellTiter-Glo Luminescent Viability assay, according to the manufacturer's instructions (Promega). Luminescence was recorded using the Infinite M1000Pro plate reader using integration time of 250 milliseconds (Tecan).

[3] = tested on: primary patient-derived MLL-rearranged leukemia cells; assay: Primary patient derived xenograft, survival analysis; type: in vivo, NSG mice; conditions: 50 mg/kg daily intraperitoneal, days 3-17, log-rank p=0.0038
Method: Mouse studies. All mouse experiments were carried out in accordance with institutional animal protocols. Two hundred thousand primary AML MLL-rearranged leukemia cells were suspended in […] of PBS and transplanted via tail vein injection into 8-week-old sublethally irradiation (200 rad) female NOD.Cg-Prkdc(scid)Il2rg(tm1Wjl)/SzJ mice (The Jackson Laboratory, Bar Harbor, Me., USA). Recipient mice were maintained on antibiotic supplementation in chow (0.025% trimethoprim, 0.124% sulfamethoxazole, Sulfatrim). Three days after transplant, mice were randomly assigned to experimental treatment groups. MYBMIM peptide suspended in PBS was administered daily through intraperitoneal injection at a daily dose of 50 mg/kg. Mice were treated from days 3-17 of this study for a total of 14 days and then monitored daily with clinical examination for survival analysis.
Statistical Analysis. For comparisons between two sample sets, statistical analysis of means was performed using 2-tailed, unpaired Student's t-tests. Survival analysis was done using the Kaplan-Meier method, as assessed using a log-rank test. For gene expression analysis, statistical significance was assessed using paired t-tests.

MV411 cells = assay: CellTiter Glo viability of MV411 cells with ectopic BCL2 expression; type: cell-based, human; conditions: MV411 cells with MSCV-Ires-GFP BCL2 vector
[4] = tested on: MYB-dependent gene expression; assay: RNA-seq gene expression after peptide treatment; type: cell-based, human

`CC[C@@H](C)[C@@H](NC(=O)[C@@H](CCCCN)NC(=O)[C@@H](CCC(=O)O)NC(=O)[C@@H](CC(C)C)NC(=O)[C@@H](CCC(=O)O)NC(=O)[C@@H](CC(C)C)NC(=O)[C@@H](CC(C)C)NC(=O)[C@@H](CC(C)C)NC(=O)[C@@H](CCSC)NC(=O)[C@@H](CO)NC(=O)[C@H](NC(=O)[C@@H](CCC(=O)O)NC(=O)[C@@H](CC(N)=O)NC(=O)[C@@H](CCC(=O)O)NC(=O)[C@@H](CC(C)C)NC(=O)[C@@H](CCCCN)NC(C)=O)[C@H](C)O)C(=O)N[C@H](CCCNC(=N)N)C(=O)N[C@H](CCCCN)C(=O)NCC(=O)NCC(=O)N[C@H](CCCNC(=N)N)C(=O)N[C@H](CCCNC(=N)N)C(=O)N[C@H](CCCNC(=N)N)C(=O)N[C@H](CCC(N)=O)C(=O)N[C@H](CCCNC(=N)N)C(=O)N[C@H](CCCNC(=N)N)C(=O)N[C@H](CCCCN)C(=O)N[C@H](CCCCN)C(=O)N[C@H](CCCNC(=N)N)C(=O)NCC(=O)N[C@H](Cc1ccc(O)cc1)C(N)=O` [MYBMIM] was tested, and the “leukemia burden in bone marrow (hCD45 staining)” value [1] was “decrease in the leukemia burden”, the “AML cell death (live cells on Day 6)” value [2] was “induction of AML cell death” and the “survival of mice (Kaplan-Meier)” value [3] was “prolongs survival”. The “survival of mice (Kaplan-Meier)” value ([3]; listed as SEQ ID NO:1) was “impeded leukemia progression and extended survival”, the “rescue of peptide-induced apoptosis by ectopic Bcl2 expression (cell viability)” value (MV411 cells) was “partial rescue” and the “MYC and BCL2 expression (volcano plot)” value ([4]; MV411 cells, MYBMIM vs control) was “significantly downregulated”. The “MYB-dependent gene expression (RNA-seq)” value ([4]; human AML cells, 6 hours, 20 μM, vs TG3 and control) was “significant down-regulation”.
